Assay results: publication PMC4648050, “Discovery of Inhibitors of Trypanosoma brucei by Phenotypic Screening of a Focused Protein Kinase Library” (Chemmedchem, 2015)

Experiments:
Assay type in all cases: biochemical, human/mammalian
PDK1 = target: T1, PDK1 (Homo sapiens, UniProt O15530); assay: Kinase panel: PDK1; conditions: compound at 10 μM, read-out: % of activity respect of the control
T1 sequence (O15530 1-556): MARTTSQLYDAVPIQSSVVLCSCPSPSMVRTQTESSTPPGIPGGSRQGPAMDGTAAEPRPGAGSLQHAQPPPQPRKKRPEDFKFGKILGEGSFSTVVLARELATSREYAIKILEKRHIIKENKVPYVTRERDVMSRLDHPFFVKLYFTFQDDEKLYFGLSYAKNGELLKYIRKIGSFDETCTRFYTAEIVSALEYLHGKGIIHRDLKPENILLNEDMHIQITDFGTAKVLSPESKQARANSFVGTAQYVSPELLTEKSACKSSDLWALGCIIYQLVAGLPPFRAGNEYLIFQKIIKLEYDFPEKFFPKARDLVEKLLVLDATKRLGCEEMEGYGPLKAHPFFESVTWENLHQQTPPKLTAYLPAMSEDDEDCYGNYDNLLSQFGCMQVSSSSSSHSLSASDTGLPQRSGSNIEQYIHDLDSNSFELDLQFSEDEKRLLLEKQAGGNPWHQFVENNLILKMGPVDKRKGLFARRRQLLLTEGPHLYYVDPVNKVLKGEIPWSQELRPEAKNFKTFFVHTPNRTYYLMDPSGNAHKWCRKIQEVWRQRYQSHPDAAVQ
Description: (§1) The DDU kinase-focused compound set contains lead-like scaffolds that are designed to target protein kinases; they have kinase hinge binding motifs. Four of the 1H-imidazopyrazinones were screened against a human/mammalian kinase panel at the University of Dundee (http://www.kinase-screen.mrc.ac.uk) at a concentration of 10 μM. At the time of testing the panel contained 79 mammalian kinases selected to provide a broad coverage of the mammalian kinome (∼500 kinases in the human genome).[3] None of the compounds were active against any of the kinases at 10 μM.

PKBa = PKBa (Homo sapiens, UniProt P31749); assay: Kinase panel: PKBa; conditions: compound at 10 μM, read-out: % of activity respect of the control
PKBa, sequence (P31749 whole entry): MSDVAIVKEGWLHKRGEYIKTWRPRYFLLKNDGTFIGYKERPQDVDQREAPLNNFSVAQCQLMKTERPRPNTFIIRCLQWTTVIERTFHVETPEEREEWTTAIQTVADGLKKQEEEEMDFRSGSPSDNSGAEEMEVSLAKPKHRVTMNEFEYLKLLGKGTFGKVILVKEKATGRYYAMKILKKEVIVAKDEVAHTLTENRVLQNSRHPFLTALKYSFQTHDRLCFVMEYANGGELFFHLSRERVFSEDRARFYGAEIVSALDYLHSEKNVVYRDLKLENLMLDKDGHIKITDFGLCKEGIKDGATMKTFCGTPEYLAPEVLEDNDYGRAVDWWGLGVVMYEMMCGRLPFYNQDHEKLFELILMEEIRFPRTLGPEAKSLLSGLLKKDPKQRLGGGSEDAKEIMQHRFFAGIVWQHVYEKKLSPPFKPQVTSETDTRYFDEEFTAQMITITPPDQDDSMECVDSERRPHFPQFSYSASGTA
Description: as §1

PKBb = PKBb (Homo sapiens, UniProt P31751); assay: Kinase panel: PKBb; conditions: compound at 10 μM, read-out: % of activity respect of the control
PKBb, sequence (P31751 whole entry): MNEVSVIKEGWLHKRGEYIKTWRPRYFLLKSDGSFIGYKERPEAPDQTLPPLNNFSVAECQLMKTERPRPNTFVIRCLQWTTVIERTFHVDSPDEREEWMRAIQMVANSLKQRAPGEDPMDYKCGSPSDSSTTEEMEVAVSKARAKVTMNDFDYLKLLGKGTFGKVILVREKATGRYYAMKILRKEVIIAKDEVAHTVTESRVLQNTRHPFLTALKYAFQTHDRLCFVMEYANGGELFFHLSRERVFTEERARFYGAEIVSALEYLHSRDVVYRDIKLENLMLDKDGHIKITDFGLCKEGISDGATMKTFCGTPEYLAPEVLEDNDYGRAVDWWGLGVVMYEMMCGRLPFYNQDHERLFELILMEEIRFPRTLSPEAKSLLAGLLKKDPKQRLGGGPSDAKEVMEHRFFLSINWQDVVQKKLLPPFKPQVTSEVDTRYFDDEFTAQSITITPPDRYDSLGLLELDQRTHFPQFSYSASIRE
Description: as §1

PKD1 = target: T2, PKD1 (Homo sapiens, UniProt Q15139); assay: Kinase panel: PKD1; conditions: compound at 10 μM, read-out: % of activity respect of the control
T2 sequence (Q15139 1-912): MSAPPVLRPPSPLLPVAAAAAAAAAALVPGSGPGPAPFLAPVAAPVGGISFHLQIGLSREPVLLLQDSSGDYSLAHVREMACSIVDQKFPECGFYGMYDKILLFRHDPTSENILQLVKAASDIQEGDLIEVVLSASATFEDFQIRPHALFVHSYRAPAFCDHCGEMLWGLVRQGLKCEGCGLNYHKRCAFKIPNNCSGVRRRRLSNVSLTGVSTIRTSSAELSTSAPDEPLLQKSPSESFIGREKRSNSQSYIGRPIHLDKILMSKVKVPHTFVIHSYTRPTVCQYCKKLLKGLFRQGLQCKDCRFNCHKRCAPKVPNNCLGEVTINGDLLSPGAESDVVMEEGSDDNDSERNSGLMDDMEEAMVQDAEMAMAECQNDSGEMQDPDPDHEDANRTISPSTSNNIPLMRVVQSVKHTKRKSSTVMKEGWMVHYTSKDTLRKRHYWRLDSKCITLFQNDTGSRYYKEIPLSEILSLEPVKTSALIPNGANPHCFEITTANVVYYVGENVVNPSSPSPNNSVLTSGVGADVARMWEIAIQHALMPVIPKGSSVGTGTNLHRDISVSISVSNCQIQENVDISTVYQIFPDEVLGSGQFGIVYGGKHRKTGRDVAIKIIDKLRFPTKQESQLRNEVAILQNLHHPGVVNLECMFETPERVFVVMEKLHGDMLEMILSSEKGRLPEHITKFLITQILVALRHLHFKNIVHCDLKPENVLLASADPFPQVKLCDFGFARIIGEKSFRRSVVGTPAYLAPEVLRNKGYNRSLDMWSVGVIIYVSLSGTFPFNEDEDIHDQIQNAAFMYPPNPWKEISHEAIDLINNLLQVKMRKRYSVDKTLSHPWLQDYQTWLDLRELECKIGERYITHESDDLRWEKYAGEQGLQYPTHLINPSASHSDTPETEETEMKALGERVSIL
Description: as §1

PHK = assay: Kinase panel: PHK; conditions: compound at 10 μM
Description: as §1

MELK = MELK (Homo sapiens, UniProt Q14680); assay: Kinase panel: MELK; conditions: compound at 10 μM, read-out: % of activity respect of the control
MELK, sequence (Q14680 whole entry): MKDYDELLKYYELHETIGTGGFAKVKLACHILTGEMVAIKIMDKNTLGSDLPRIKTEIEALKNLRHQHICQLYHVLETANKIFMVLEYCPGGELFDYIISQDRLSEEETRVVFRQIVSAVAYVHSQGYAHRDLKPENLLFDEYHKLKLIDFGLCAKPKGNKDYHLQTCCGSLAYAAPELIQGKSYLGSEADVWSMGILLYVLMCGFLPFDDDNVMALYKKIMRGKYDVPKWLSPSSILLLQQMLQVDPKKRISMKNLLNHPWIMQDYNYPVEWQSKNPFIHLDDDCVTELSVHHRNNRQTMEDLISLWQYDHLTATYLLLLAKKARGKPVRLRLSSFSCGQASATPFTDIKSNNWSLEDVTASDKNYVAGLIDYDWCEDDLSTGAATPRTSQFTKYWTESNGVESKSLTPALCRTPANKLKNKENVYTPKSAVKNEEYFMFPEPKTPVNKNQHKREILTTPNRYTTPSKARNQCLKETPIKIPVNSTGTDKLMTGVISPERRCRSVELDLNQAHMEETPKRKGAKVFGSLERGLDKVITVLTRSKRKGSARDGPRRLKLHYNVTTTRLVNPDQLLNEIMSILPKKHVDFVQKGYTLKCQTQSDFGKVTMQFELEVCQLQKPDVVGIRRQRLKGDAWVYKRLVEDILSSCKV
Description: as §1

CK1 = CK1 (Homo sapiens, UniProt P48730); assay: Kinase panel: CK1; conditions: compound at 10 μM, read-out: % of activity respect of the control
CK1, sequence (P48730 whole entry): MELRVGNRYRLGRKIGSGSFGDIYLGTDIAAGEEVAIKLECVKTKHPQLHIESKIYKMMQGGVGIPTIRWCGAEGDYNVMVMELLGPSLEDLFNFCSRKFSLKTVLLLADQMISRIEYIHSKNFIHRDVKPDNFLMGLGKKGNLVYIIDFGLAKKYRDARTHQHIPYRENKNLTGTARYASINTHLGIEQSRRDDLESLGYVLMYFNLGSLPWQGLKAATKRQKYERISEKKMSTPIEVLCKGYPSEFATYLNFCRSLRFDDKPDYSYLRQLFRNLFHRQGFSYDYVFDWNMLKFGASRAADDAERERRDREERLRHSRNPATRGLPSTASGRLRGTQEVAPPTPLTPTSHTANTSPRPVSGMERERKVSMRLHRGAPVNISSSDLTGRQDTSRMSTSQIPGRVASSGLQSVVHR
Description: as §1

SRPK1 = SRPK1 (Homo sapiens, UniProt Q96SB4); assay: Kinase panel: SRPK1; conditions: compound at 10 μM, read-out: % of activity respect of the control
SRPK1, sequence (Q96SB4 whole entry): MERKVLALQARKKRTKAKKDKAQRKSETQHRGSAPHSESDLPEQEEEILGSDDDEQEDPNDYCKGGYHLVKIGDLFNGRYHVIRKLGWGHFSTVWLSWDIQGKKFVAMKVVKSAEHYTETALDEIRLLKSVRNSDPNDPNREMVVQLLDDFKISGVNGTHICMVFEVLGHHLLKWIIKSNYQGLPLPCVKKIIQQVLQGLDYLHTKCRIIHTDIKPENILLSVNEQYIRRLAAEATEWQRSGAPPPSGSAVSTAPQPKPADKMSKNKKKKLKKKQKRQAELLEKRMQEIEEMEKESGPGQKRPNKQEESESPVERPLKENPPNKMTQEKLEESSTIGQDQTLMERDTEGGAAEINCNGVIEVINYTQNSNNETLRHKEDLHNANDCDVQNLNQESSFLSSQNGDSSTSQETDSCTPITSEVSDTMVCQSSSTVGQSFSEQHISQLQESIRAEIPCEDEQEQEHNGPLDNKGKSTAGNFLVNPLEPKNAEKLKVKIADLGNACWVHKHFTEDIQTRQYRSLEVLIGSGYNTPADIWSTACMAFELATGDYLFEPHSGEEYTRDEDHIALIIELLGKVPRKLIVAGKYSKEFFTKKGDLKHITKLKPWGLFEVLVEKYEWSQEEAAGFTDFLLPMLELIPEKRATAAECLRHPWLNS
Description: as §1

IRR = IRR (Homo sapiens, UniProt P14616); assay: Kinase panel: IRR; conditions: compound at 10 μM, read-out: % of activity respect of the control
IRR, sequence (P14616 27-1297): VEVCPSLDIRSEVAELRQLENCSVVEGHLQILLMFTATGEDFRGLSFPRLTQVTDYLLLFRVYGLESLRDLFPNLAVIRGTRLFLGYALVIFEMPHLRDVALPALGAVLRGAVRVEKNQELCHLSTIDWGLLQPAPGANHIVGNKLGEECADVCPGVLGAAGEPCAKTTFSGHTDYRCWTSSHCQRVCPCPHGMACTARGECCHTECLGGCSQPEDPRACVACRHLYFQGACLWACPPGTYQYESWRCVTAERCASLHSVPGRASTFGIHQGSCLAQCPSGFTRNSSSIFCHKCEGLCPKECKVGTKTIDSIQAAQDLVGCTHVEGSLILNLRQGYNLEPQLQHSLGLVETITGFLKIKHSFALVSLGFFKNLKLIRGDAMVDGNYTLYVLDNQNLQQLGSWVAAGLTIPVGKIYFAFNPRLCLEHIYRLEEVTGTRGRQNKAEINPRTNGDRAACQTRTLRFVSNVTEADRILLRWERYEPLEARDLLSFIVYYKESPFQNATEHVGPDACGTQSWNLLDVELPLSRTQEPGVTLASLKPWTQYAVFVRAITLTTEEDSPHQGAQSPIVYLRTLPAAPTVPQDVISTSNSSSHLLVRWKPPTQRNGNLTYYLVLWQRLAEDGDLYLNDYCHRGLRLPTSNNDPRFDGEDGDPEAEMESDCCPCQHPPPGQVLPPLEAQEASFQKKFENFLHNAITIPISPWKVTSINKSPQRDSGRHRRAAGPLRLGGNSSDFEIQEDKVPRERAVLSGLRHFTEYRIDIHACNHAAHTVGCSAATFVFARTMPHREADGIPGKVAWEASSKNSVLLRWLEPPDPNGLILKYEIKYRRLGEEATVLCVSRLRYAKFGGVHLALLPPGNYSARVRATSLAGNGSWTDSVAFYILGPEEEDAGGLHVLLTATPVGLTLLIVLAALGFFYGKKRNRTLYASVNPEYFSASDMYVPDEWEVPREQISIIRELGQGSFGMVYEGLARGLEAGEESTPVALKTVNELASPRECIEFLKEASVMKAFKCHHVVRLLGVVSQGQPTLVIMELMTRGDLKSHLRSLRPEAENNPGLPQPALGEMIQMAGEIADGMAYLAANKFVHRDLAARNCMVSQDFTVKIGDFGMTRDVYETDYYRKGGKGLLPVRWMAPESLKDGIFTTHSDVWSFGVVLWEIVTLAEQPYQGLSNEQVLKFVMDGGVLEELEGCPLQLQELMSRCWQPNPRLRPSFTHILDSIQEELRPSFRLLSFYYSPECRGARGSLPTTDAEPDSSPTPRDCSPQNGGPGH
Description: as §1

MST4 = MST4 (Homo sapiens, UniProt Q9P289); assay: Kinase panel: MST4; conditions: compound at 10 μM, read-out: % of activity respect of the control
MST4, sequence (Q9P289 whole entry): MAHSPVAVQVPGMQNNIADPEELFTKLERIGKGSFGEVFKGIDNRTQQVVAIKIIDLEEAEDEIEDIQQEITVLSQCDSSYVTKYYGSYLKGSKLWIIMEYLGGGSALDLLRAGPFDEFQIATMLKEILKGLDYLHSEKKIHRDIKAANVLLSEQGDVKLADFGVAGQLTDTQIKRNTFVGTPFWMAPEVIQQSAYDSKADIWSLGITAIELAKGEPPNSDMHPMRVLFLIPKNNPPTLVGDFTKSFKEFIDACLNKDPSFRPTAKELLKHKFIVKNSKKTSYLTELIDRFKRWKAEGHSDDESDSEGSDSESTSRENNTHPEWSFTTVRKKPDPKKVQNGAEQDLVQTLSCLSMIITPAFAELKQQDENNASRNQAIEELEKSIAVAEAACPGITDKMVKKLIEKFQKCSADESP
Description: as §1

IKK epsilon (14231) = target: T3, IKK epsilon (14231) (Homo sapiens, UniProt Q14164); assay: Kinase panel: IKK epsilon (14231); conditions: compound at 10 μM, read-out: % of activity respect of the control
T3 sequence (Q14164 1-716): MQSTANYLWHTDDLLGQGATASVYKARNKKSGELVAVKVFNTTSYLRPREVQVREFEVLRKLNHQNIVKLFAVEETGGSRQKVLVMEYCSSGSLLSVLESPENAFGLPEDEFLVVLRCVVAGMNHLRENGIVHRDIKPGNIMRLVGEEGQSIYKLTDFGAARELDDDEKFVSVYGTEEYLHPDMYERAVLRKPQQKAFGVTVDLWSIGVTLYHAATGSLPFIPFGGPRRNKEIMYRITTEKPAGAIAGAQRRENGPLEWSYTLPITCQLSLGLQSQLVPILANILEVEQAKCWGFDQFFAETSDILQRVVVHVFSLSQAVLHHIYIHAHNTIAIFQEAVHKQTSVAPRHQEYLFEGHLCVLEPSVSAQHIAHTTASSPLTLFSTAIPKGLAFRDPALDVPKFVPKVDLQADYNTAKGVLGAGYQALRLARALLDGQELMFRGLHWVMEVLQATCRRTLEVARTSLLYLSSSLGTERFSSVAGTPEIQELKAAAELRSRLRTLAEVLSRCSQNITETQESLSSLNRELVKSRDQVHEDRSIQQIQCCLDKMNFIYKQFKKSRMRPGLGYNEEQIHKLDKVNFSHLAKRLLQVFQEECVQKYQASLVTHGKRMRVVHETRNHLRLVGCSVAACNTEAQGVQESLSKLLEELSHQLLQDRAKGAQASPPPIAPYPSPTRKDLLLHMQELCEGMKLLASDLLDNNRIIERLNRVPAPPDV
Description: as §1

SMILES | remaining activity at 10 µM (PDK1) | remaining activity at 10 µM (PKBa) | remaining activity at 10 µM (PKBb) | remaining activity at 10 µM (PKD1) | % of activity respect of the control (PHK) | remaining activity at 10 µM (MELK) | remaining activity at 10 µM (CK1) | remaining activity at 10 µM (SRPK1) | remaining activity at 10 µM (IRR) | remaining activity at 10 µM (MST4) | remaining activity at 10 µM (IKK epsilon (14231))
CC(c1ccccc1)n1c(=O)[nH]c2ncc(-c3ccc(F)cc3)nc21 (centres unmarked) [Compound 1] | 99% | 99% | 117% | 55% | 103% | 118% | 75% | 80% | 96% | 90% | 124%
O=c1[nH]c2ncc(-c3ccc(F)cc3)nc2n1CC1CC1 [Compound 10] | 96% | 96% | 120% | 40% | 97% | 125% | 75% | 89% | 104% | 92% | 103%
O=c1[nH]c2ncc(-c3ccc(F)cc3)nc2n1C1CCCCC1 [Compound 12, 1-Cyclohexyl-6-(4-fluorophenyl)-1H-imidazo[4,5-b]pyrazin-2(3H)-one] | 98% | 102% | 106% | 60% | 110% | 110% | 98% | 88% | 83% | 100% | 98%
C[C@H](c1ccccc1)n1c(=O)[nH]c2ncc(-c3ccccc3)nc21 [Compound 14, (R)-6-Phenyl-1-(1-phenylethyl)-1H-imidazo[4,5-b]pyrazin-2(3H)-one] | 91% | 89% | 100% | 44% | 94% | 100% | 71% | 75% | 112% | 88% | 87%
